Target: human PDE10A2 (Homo sapiens (Human), UniProt Q9Y233)
Test: PDE10 fluorescence polarization (IMAP FP) inhibition assay
Assay type: biochemical
Settings: human PDE10A2 from transfected AD293 cells; FAM-labeled cAMP 50 nM; apparent inhibition constant; read-out: PDE10A Ki
Experimental: The activity of the compounds in accordance with the present invention as PDE10 inhibitors may be readily determined without undue experimentation using a fluorescence polarization (FP) methodology that is well known in the art (Huang, W., et al., J. Biomol Screen, 2002, 7: 215).
In a typical experiment the PDE10 inhibitory activity of the compounds of the present invention was determined in accordance with the following experimental method. PDE10A2 was amplified from human fetal brain cDNA (Clontech, Mountain View, Calif.) using a forward primer corresponding to nucleotides 56-77 of human PDE10A2 (Accession No. AF127480, Genbank Identifier 4894716), containing a Kozak consensus sequence, and a reverse primer corresponding to nucleotides 2406-2413 of human PDE10A2 (Accession No. AF127480, Genbank Identifier 4894716). Amplification with Easy-A polymerase (Stratagene, La Jolla, Calif.) was 95° C. for 2 minutes followed by thirty three cycles of 95° C. for 40 seconds, 55° C. for 30 seconds, and 72° C. for 2 minutes 48 seconds. Final extension was 72° C. for 7 minutes. The PCR product was TA cloned into pcDNA3.2-TOPO (Invitrogen, Carlsbad, Calif.) according to standard protocol. AD293 cells with 70-80% confluency were transiently transfected with human PDE10A2/pcDNA3.2-TOPO using Lipofectamine 2000 according to manufacturer specifications (Invitrogen, Carlsbad, Calif.). Cells were harvested 48 hours post-transfection and lysed by sonication (setting 3, 10×5 sec pulses) in a buffer containing 20 mM HEPES, 1 mM EDTA and protease inhibitor cocktail (Roche). Lysate was collected by centrifugation at 75,000×g for 20 minutes. Supernatant containing the cytoplasmic fraction was used for evaluation of PDE10A2 activity. The fluorescence polarization assay for cyclic nucleotide phosphodiesterases was performed using an IMAP® FP kit supplied by Molecular Devices, Sunnyvale, Calif. (product # R8139). IMAP® technology has been applied previously to phosphodiesterase assays (Huang, W., et al., J. Biomol Screen, 2002, 7: 215). Assays were performed at room temperature in 384-well microtiter plates with an incubation volume of 20.2 μL. Solutions of test compounds were prepared in DMSO and serially diluted with DMSO to yield 8 μL of each of 10 solutions differing by 3-fold in concentration, at 32 serial dilutions per plate. […] 0% of inhibition is determined by using DMSO (1% final concentrations).
A Labcyte Echo 555 (Labcyte, Sunnyvale, Calif.) is used to dispense 200 nL from each well of the titration plate to the 384 well assay plate. A solution of enzyme (1/1600 dilution from aliquots; sufficient to produce 20% substrate conversion) and a separate solution of FAM-labeled cAMP PDE from Molecular Devices (product # R7506), at a final concentration of 50 nM are made in the assay buffer (10 mM Tris HCl, pH 7.2, 10 mM MgCl2, 0.05% NaN3 0.01% Tween-20, and 1 mM DTT). The enzyme and the substrate are then added to the assay plates in two consecutive additions of 10 μL, and then shaken to mix. The reaction is allowed to proceed at room temperature for 30 minutes. […] The enzymatic reaction is stopped by addition of 60 μL of the binding solution to each well of the assay plates and the plates are sealed and shaken for 10 seconds. The plate was incubated at room temperature for at least one hour prior to determining the fluorescence polarization (FP). The parallel and perpendicular fluorescence of each well of the plate was measured using a Perkin Elmer EnVision™ plate reader (Waltham, Mass.).
Fluorescence polarization (mP) was calculated from the parallel (S) and perpendicular (P) fluorescence of each sample well and the analogous values for the median control well, containing only substrate (So and Po), using the following equation: Polarization(mP)=1000*(S/So−P/Po)/(S/So+P/Po).
Dose-inhibition profiles for each compound were characterized by fitting the mP data to a four-parameter equation given below.

Sequence of human PDE10A2 (Q9Y233 267-1055): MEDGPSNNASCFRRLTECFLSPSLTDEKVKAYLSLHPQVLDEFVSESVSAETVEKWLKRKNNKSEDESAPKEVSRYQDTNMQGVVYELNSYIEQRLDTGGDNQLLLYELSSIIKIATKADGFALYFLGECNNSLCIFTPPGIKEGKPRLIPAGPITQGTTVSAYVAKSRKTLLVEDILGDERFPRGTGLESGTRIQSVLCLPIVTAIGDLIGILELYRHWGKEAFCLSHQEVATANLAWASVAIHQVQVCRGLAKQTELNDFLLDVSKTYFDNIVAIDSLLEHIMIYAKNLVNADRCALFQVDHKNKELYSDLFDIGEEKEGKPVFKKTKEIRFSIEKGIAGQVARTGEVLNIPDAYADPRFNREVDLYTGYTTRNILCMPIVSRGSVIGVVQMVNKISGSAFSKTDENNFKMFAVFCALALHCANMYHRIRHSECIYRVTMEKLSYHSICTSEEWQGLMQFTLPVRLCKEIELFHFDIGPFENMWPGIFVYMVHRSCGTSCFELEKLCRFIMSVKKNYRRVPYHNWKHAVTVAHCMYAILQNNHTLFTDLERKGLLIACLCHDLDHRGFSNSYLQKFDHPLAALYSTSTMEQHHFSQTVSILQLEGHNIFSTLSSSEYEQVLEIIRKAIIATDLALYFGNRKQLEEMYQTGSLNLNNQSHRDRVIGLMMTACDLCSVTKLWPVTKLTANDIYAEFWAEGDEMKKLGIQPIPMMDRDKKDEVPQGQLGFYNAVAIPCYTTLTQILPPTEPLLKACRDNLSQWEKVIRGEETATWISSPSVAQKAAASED

SMILES	Ki [nM]
COc1ccc([C@H]2C[C@@H]2COc2nc(C)ncc2-c2ccnc(N)c2C#N)nc1 [Example 108, 2-amino-4-(4-(((1S,2S)-2 (5-methoxypyridin-2-yl)cyclopropyl)methoxy)-2-methylpyrimidin-5-yl)nicotinonitrile]	3.75
CCOc1cccc(-c2cnc(C)nc2OC[C@H]2C[C@@H]2c2ccc3ccccc3n2)c1 (single isomer, unassigned) [Example 41, 2,2,2-trifluoroacetate]	5.08
COc1ccc([C@H]2C[C@@H]2COc2nc(C)ncc2-c2cnnn2C(F)F)nc1 [Example 246, 5-(3-(difluoromethyl)-3H-1,2,3-triazol-4-yl)-4-(((1S,2S)-2-(5-methoxypyridin-2-yl)cyclopropyl)methoxy)-2-methylpyrimidine]	6.6
COc1ccc([C@H]2C[C@@H]2COc2nc(C)ncc2-c2ncno2)nc1 [Example 254, 5-(4-(((1S,2S)-2-(5-methoxypyridin-2-yl)cyclopropyl)methoxy)-2-methylpyrimidin-5-yl)-1,2,4-oxadiazole]	22.9
COc1ccc([C@H]2C[C@@H]2COc2nc(C)ncc2-c2ccc(-c3nn[nH]n3)nc2)nc1 [Example 229, 5-(6-(2H-tetrazol-5-yl)pyridin-3-yl)-4-(((1S,2S)-2-(5-methoxypyridin-2-yl)cyclopropyl)methoxy)-2-methylpyrimidine]	0.13
COc1ccc([C@H]2C[C@@H]2COc2nc(C)ncc2-c2ccc(-c3ncon3)cc2)nc1 [Example 250, 3-(4-(4-(((1S,2S)-2-(5-methoxypyridin-2-yl)cyclopropyl)methoxy)-2-methylpyrimidin-5-yl)phenyl)-1,2,4-oxadiazole]	1.16
COc1ccc([C@H]2C[C@@H]2COc2nc(C)ncc2C2(F)CCCCC2)nc1 [Example 211, 5-(1-fluorocyclohexyl)-4-(((1S,2S)-2-(5-methoxypyridin-2-yl)cyclopropyl)methoxy)-2-methylpyrimidine]	19.4
CCC(O)c1ccc(-c2cnc(C)nc2OC[C@H]2C[C@@H]2c2ccc(C)cn2)cn1 (stereo partly drawn) [Example 143, 1-(5-(2-methyl-4-(((1S,2S)-2-(5-methylpyridin-2-yl)cyclopropyl)methoxy)pyrimidin-5-yl)pyridin-2-yl)propan-1-ol]	0.16
Cc1ccc([C@H]2C[C@@H]2COc2nc(C)ncc2-c2ccc(C(C)O)nc2)nc1 (stereo partly drawn) [Example 149, 1-(5-(2-methyl-4-(((1S,2S)-2-(5-methylpyridin-2-yl)cyclopropyl)methoxy)pyrimidin-5-yl)pyridin-2-yl)ethanol]	0.14
COc1ccc([C@H]2C[C@@H]2COc2nc(C)ncc2C2CCC3(CC2)OCCO3)nc1 [Example 188, 4-(((1S,2S)-2-(5-methoxypyridin-2-yl)cyclopropyl)methoxy)-2-methyl-5-(1,4-dioxaspiro[4.5]decan-8-yl)pyrimidine]	2.84
COc1ccc([C@H]2C[C@@H]2COc2nc(C)ncc2-c2ccc(C(=O)O)cc2)nc1 [Example 172, 4-(4-(((1S,2S)-2-(5-methoxypyridin-2-yl)cyclopropyl)methoxy)-2-methylpyrimidin-5-yl)benzoic acid]	0.29
CCc1ccc(-c2cnc(C)nc2OC[C@H]2C[C@@H]2c2ccc3ccccc3n2)cc1 (single isomer, unassigned) [Example 31]	7.95
Cc1ncc(-c2ccncc2)c(OC[C@H]2C[C@@H]2c2ccc3ccccc3n2)n1 (single isomer, unassigned) [Example 26]	0.02
COc1ccc([C@H]2C[C@@H]2COc2nc(C)ncc2-c2nn[nH]c2CO)nc1 [Example 249, (4-(4-(((1S,2S)-2-(5-methoxypyridin-2-yl)cyclopropyl)methoxy)-2-methylpyrimidin-5-yl)-1H-1,2,3-triazol-5-yl)methanol]	15.7
Cc1ncc(-c2ccncc2)c(OC[C@H]2C[C@@H]2c2ccc3ccccc3n2)n1 (single isomer, unassigned) [Example 27]	0.93
COc1cnccc1-c1cnc(C)nc1OC[C@H]1C[C@@H]1c1ccc(C)cn1 [Example 150, 5-(3-methoxypyridin-4-yl)-2-methyl-4-(((1S,2S)-2-(5-methylpyridin-2-yl)cyclopropyl)methoxy)pyrimidine]	0.47
COc1ccc([C@H]2C[C@@H]2COc2nc(C)ncc2-c2ccc(-c3nnnn3C)nc2)nc1 [Example 231, 4-(((1S,2S)-2-(5-methoxypyridin-2-yl)cyclopropyl)methoxy)-2-methyl-5-(6-(1-methyl-1H-tetrazol-5-yl)pyridin-3-yl)pyrimidine]	1.78
C=Cc1cnc(C)nc1OC[C@H]1C[C@@H]1c1ccc(C)cn1 [Example 54, 2-methyl-4-(((1S,2S)-2-(5-methylpyridin-2-yl)cyclopropyl)methoxy)-5-vinylpyrimidine]	10.4
COc1ccc([C@H]2C[C@@H]2COc2nc(C)ncc2-c2ccc(-c3ncno3)cc2)nc1 [Example 93, 5-(4-(4-(((1S,2S)-2-(5-methoxypyridin-2-yl)cyclopropyl)methoxy)-2-methylpyrimidin-5-yl)phenyl)-1,2,4-oxadiazole]	0.15
CCn1nnnc1-c1ccc(-c2cnc(C)nc2OC[C@H]2C[C@@H]2c2ccc(OC)cn2)cn1 [Example 233, 5-(6-(1-ethyl-1H-tetrazol-5-yl)pyridin-3-yl)-4-(((1S,2S)-2-(5-methoxypyridin-2-yl)cyclopropyl)methoxy)-2-methylpyrimidine]	1.16
Cc1ncc(-c2ccc(C(C)O)cc2)c(OC[C@H]2C[C@@H]2c2ccccn2)n1 (stereo partly drawn) [Example 122, 1-(4-(2-methyl-4-(((1S,2S)-2-(pyridin-2-yl)cyclopropyl)methoxy)pyrimidin-5-yl)phenyl)ethanol]	2.85
CCOC(=O)[C@H]1CC[C@@H](c2cnc(C)nc2OC[C@H]2C[C@@H]2c2ccc(OC)cn2)CC1 [Example 216, cis-Ethyl4-(4-(((1S,2S)-2-(5-methoxypyridin-2-yl)cyclopropyl)methoxy)-2-methylpyrimidin-5-yl)cyclohexanecarboxylate]	7.9
CCn1nnc(-c2cnc(C)nc2OC[C@H]2C[C@@H]2c2ccc(OC)cn2)n1 [Example 236, 5-(2-ethyl-2H-tetrazol-5-yl)-4-(((1S,2S)-2-(5-methoxypyridin-2-yl)cyclopropyl)methoxy)-2-methylpyrimidine]	19.4
Cc1ncc(-c2ccc(C(C)(C)O)nc2C)c(OC[C@H]2C[C@@H]2c2ccccn2)n1 [Example 119, 2-(6-methyl-5-(2-methyl-4-(((1S,2S)-2-(pyridin-2-yl)cyclopropyl)methoxy)pyrimidin-5-yl)pyridin-2-yl)propan-2-ol]	2.15
Cc1ncc(-c2ccc(CO)cc2)c(OC[C@H]2C[C@@H]2c2ccc3ccccc3n2)n1 (single isomer, unassigned) [Example 39]	0.87
Cc1ccc([C@H]2C[C@@H]2COc2nc(C)ncc2-c2ccncc2C)nc1 [Example 147, 2-methyl-4-(((1S,2S)-2-(5-methylpyridin-2-yl)cyclopropyl)methoxy)-5-(3-methylpyridin-4-yl)pyrimidine]	0.4
COc1ccc([C@H]2C[C@@H]2COc2nc(C)ncc2-c2cnc(C(=O)O)cn2)nc1 [Example 96, 5-(4-(((1S,2S)-2-(5-methoxypyridin-2-yl)cyclopropyl)methoxy)-2-methylpyrimidin-5-yl)pyrazine-2-carboxylic acid]	1.26

Reference: US9663513B2, “Pyrimidine PDE10 inhibitors” (Merck Sharp & Dohme Corp., priority 2012, dated 2017)
